{"source": "PubChem BioAssay AID1695", "about": "(PCMD, 2009)", "note": "Calls of active or inactive are those of the source. No rule for the calls is given here.", "data": [{"target": "dTDP-4-dehydrorhamnose reductase (Mycobacterium tuberculosis (strain ATCC 25618 / H37Rv)) + dTDP-4-dehydrorhamnose 3,5-epimerase (Mycobacterium tuberculosis (strain ATCC 25618 / H37Rv)) (UniProt P9WH09+P9WH11)", "sequence (P9WH09 whole entry, looked up)": "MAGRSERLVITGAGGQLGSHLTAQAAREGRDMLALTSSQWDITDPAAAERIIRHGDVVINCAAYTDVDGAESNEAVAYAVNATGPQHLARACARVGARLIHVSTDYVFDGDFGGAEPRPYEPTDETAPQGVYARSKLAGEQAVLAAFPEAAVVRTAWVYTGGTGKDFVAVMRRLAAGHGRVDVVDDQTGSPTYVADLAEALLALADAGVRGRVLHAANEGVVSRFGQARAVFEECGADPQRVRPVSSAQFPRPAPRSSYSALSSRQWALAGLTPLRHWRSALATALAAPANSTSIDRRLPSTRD", "sequence (P9WH11 whole entry, looked up)": "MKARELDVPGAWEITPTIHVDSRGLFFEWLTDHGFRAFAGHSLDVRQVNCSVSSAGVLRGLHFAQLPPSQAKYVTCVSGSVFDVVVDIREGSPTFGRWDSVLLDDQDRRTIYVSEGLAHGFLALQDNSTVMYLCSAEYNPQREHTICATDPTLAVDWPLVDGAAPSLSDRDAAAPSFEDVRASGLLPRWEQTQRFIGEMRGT", "assay": "dTDP dehydrorhamnose epimerase and reductase, coupled enzyme assay, Mycobacterium tuberculosis, IC50 (AID 1695)", "conditions": "coupled RmlC/RmlD enzyme assay", "values": [{"smiles": "CCOC(=O)C1=C(CSc2nc(-c3ccccc3)ccc2C#N)OC(N)=C(C#N)C1c1cccnc1", "note": "(stereo unspecified)", "IC50": "inactive"}, {"smiles": "CC1=C(C#N)C(c2cccnc2)C2=C(CC(C)(C)CC2=O)N1", "note": "(stereo unspecified)", "IC50": "inactive"}, {"smiles": "CC1=C(C#N)C(c2cccnc2)C2=C(CCCC2=O)N1", "note": "(stereo unspecified)", "IC50": "inactive"}, {"smiles": "CCCCCCc1cc2cc(-c3nnc(-c4ccccc4OC)o3)c(=O)oc2cc1O", "IC50": "inactive"}, {"smiles": "COC(=O)/C(=C/Nc1cccc2ccccc12)[N+](=O)[O-]", "IC50": "inactive"}, {"smiles": "COc1ccccc1N=c1oc2cc(O)ccc2cc1C(N)=O", "IC50": "inactive"}, {"smiles": "COC(=O)C1=CNC=C(C(=O)OC)C1c1cccc(OC)c1", "IC50": "inactive"}, {"smiles": "COc1ccc(OC)c(/C=N/NC(=O)CC2C(=O)NN=C2C)c1", "note": "(stereo unspecified)", "IC50": "inactive"}, {"smiles": "CC1=CC(c2ccccc2)n2nc(NS(=O)(=O)c3ccc(C)cc3)nc2N1", "note": "(stereo unspecified)", "IC50": "inactive"}, {"smiles": "C=CCOC(=O)C1=C(C)NC(SCC(=O)NC(=O)OCC)=C(C#N)C1c1cccnc1", "note": "(stereo unspecified)", "IC50": "inactive"}, {"smiles": "O=C1CCC(=O)N1c1nc2nc(-c3ccccc3)cc(-c3ccccc3)n2n1", "IC50": "inactive"}]}]}
